# Experimental data: US3960877A, “N-monosubstituted-2,3-pyridinedicarboxamides, and related compounds” (priority 1974, dated 1976)
# Key:
# Assay type in all cases: in vivo
# [1] = system: undesirable plants of both the monocotyledonous and the dicotyledonous species; assay: Herbicidal activity, general
# Text: All of the 3-substituted compounds of the pyrido [3,2-d]pyrimidine-2,4(1H,3H)-dione and lumazine families made from intermediate amides produced by the method of this invention have an unexpectedly high order of herbicidal activity.
# (§1) In using the compound, seeds of the types of plants set forth in Table II were sown in fresh soil. In the preemergence test the soil was sprayed with a solution of the test compound immediately after the seeds were planted, and before any noticeable growth developed. The solution was about a 2 percent by weight solution of the compound in acetone and/or alcohol. The compound was applied at the rate of 16 pounds per acre of soil surface.
# (§2) Approximately 3 weeks after spray application, the herbicidal activity of the compound was determined by visual observation of the treated area in comparison with untreated control areas. These observations are reported below in Table II wherein the average activity rating is reported as the percent control of plant growth.
# In the postemergence test the soil and developing plants were sprayed approximately 2 weeks after the seeds were sown. The compound was applied at the rate of 8 pounds per acre from about a 2 percent by weight solution of the test compound in acetone and/or alcohol. The postemergence herbicidal activity was measured in the same way as the preemergence activity; i.e. visual observation approximately 11 days after spraying, and expressed as the percent control of plant growth.
# volunteer soybeans = assay: Herbicidal activity at 16 pounds per acre, % control
# Text: as §1, §2
# Snapbeans [2] = assay: Preemergence herbicidal activity, % control of plant growth; conditions: pre-emergence, 504 h, 16 lb/acre, about 3 weeks
# How it was run: (§3)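 Seeds sown in fresh soil; soil sprayed immediately after planting, before any growth, with ~2% w/w solution of compound in acetone and/or alcohol at 16 lb/acre. Visual rating ~3 weeks after spraying versus untreated areas, as average % control of plant growth.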
# Cucumber [3] = assay: as above
# How it was run: as §3
# Alfalfa [4] = assay: as above
# How it was run: as §3
# Nutgrass [5] = assay: as above; conditions: pre-emergence, 504 h, 16 lb/acre, about 3 weeks
# How it was run: as §3
# Velvetleaf [6] = assay: as above; conditions: Abutilon theophrasti, pre-emergence, 504 h, 16 lb/acre, about 3 weeks
# How it was run: as §3
# Chickweed [7] = assay: as above; conditions: pre-emergence, 504 h, 16 lb/acre, about 3 weeks
# How it was run: as §3
# Lambsquarters [8] = assay: as above
# How it was run: as §3
# Curled Dock [9] = assay: as above
# How it was run: as §3
# Wild Oats [10] = assay: as above
# How it was run: as §3
# Johnsongrass [11] = assay: as above
# How it was run: as §3
# Yellow Rocket [12] = assay: as above; conditions: pre-emergence, 504 h, 16 lb/acre, about 3 weeks
# How it was run: as §3
# Cheatgrass [13] = assay: as above
# How it was run: as §3
# Barnyard Grass [14] = assay: as above
# How it was run: as §3
# Pigweed [15] = assay: as above
# How it was run: as §3
# Foxtail [16] = assay: as above
# How it was run: as §3
# Corn [17] = assay: as above
# How it was run: as §3
# Crabgrass [18] = assay: as above
# How it was run: as §3
# Snapbeans [19] = assay: Postemergence herbicidal activity, % control of plant growth; conditions: post-emergence, 264 h, 8 lb/acre, about 11 days
# How it was run: (§4)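 Soil and emerged seedlings were sprayed about 2 weeks after sowing with the compound at 8 pounds per acre, delivered from an approx. 2% w/w acetone and/or alcohol solution. Percent control of plant growth was scored visually roughly 11 days after treatment.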
# Cucumber [20] = assay: as above; conditions: Cucumis sativus, post-emergence, 264 h, 8 lb/acre, about 11 days
# How it was run: as §4
# Alfalfa [21] = assay: as above; conditions: Medicago sativa, post-emergence, 264 h, 8 lb/acre, about 11 days
# How it was run: as §4
# Nutgrass [22] = assay: as above; conditions: post-emergence, 264 h, 8 lb/acre, about 11 days
# How it was run: as §4
# Velvetleaf [23] = assay: as above; conditions: Abutilon theophrasti, post-emergence, 264 h, 8 lb/acre, about 11 days
# How it was run: as §4
# Chickweed [24] = assay: as above; conditions: post-emergence, 264 h, 8 lb/acre, about 11 days
# How it was run: as §4
# Lambsquarters [25] = assay: as above; conditions: Chenopodium album, post-emergence, 264 h, 8 lb/acre, about 11 days
# How it was run: as §4
# Curled Dock [26] = assay: as above; conditions: post-emergence, 264 h, 8 lb/acre, about 11 days
# How it was run: as §4
# Wild Oats [27] = assay: as above; conditions: Avena fatua, post-emergence, 264 h, 8 lb/acre, about 11 days
# How it was run: as §4
# Johnsongrass [28] = assay: as above; conditions: Sorghum halepense, post-emergence, 264 h, 8 lb/acre, about 11 days
# How it was run: as §4
# Yellow Rocket [29] = assay: as above; conditions: post-emergence, 264 h, 8 lb/acre, about 11 days
# How it was run: as §4
# Cheatgrass [30] = assay: as above; conditions: Bromus tectorum, post-emergence, 264 h, 8 lb/acre, about 11 days
# How it was run: as §4
# Barnyard Grass [31] = assay: as above; conditions: Echinochloa crus-galli, post-emergence, 264 h, 8 lb/acre, about 11 days
# How it was run: as §4
# Pigweed [32] = assay: as above; conditions: Amaranthus retroflexus, post-emergence, 264 h, 8 lb/acre, about 11 days
# How it was run: as §4
# Foxtail [33] = assay: as above; conditions: Setaria, post-emergence, 264 h, 8 lb/acre, about 11 days
# How it was run: as §4
# Corn [34] = assay: as above; conditions: Zea mays, post-emergence, 264 h, 8 lb/acre, about 11 days
# How it was run: as §4
# Crabgrass [35] = assay: as above; conditions: Digitaria sanguinalis, post-emergence, 264 h, 8 lb/acre, about 11 days
# How it was run: as §4
compound,measurement,setting,value
"CCn1c(=O)[nH]c2ncccc2c1=O [3-ethyl-pyrido[2,3-d]pyrimidine-2,4 (1H,3H)-dione]",order of herbicidal activity,[1]; in vivo,comparatively low order
same,percent control,volunteer soybeans,100%
same,pest or weed control at 17933.6 g/ha,Snapbeans [2],100%
same,herbicidal activity/control,Cucumber [3]; 16 pounds per acre,no significant control
same,herbicidal activity/control,Alfalfa [4]; 16 pounds per acre,no significant control
same,pest or weed control at 17933.6 g/ha,Nutgrass [5],90%
same,pest or weed control at 17933.6 g/ha,Velvetleaf [6],80%
same,pest or weed control at 17933.6 g/ha,Chickweed [7],80%
same,herbicidal activity/control,Lambsquarters [8]; 16 pounds per acre,no significant control
same,herbicidal activity/control,Curled Dock [9]; 16 pounds per acre,no significant control
same,herbicidal activity/control,Wild Oats [10]; 16 pounds per acre,no significant control
same,herbicidal activity/control,Johnsongrass [11]; 16 pounds per acre,no significant control
same,pest or weed control at 17933.6 g/ha,Yellow Rocket [12],80%
same,herbicidal activity/control,Cheatgrass [13]; 16 pounds per acre,no significant control
same,herbicidal activity/control,"Barnyard Grass [14]; barnyardgrass, 16 pounds per acre",no significant control
same,herbicidal activity/control,Pigweed [15]; 16 pounds per acre,no significant control
same,herbicidal activity/control,Foxtail [16]; 16 pounds per acre,no significant control
same,herbicidal activity/control,Corn [17]; 16 pounds per acre,no significant control
same,herbicidal activity/control,Crabgrass [18]; 16 pounds per acre,no significant control
"O=c1[nH]c2cccnc2c(=O)n1C1CCCCC1 [3-cyclohexyl-pyrido[3,2-d] pyrimidine-2,4(1H,3H)-dione]",effective application rate,"[1]; relative to 3-isopropyl-pyrido[3,2-d]pyrimidine-2,4(1H,3H)-dione, preemergence or postemergence","substantially the same application rates, e.g., as similar or salt solutions in water, are effective"
same,pest or weed control at 8966.8 g/ha,Snapbeans [19],80%
same,pest or weed control at 8966.8 g/ha,Cucumber [20],100%
same,pest or weed control at 8966.8 g/ha,Alfalfa [21],30%
same,pest or weed control at 8966.8 g/ha,Nutgrass [22],100%
same,pest or weed control at 8966.8 g/ha,Velvetleaf [23],100%
same,pest or weed control at 8966.8 g/ha,Chickweed [24],100%
same,pest or weed control at 8966.8 g/ha,Lambsquarters [25],100%
same,pest or weed control at 8966.8 g/ha,Curled Dock [26],100%
same,pest or weed control at 8966.8 g/ha,Wild Oats [27],100%
same,pest or weed control at 8966.8 g/ha,Johnsongrass [28],100%
same,pest or weed control at 8966.8 g/ha,Yellow Rocket [29],100%
same,pest or weed control at 8966.8 g/ha,Cheatgrass [30],80%
same,pest or weed control at 8966.8 g/ha,Barnyard Grass [31],100%
same,pest or weed control at 8966.8 g/ha,Pigweed [32],100%
same,pest or weed control at 8966.8 g/ha,Foxtail [33],100%
same,plant injury at 8966.8 g/ha,Corn [34],40%
same,pest or weed control at 8966.8 g/ha,Crabgrass [35],100%
same,pest or weed control at 17933.6 g/ha,Snapbeans [2],100%
same,pest or weed control at 17933.6 g/ha,"Cucumber [3]; Cucumis sativus, pre-emergence, 504 h, 16 lb/acre, about 3 weeks",100%
same,pest or weed control at 17933.6 g/ha,"Alfalfa [4]; Medicago sativa, pre-emergence, 504 h, 16 lb/acre, about 3 weeks",100%
same,pest or weed control at 17933.6 g/ha,Nutgrass [5],100%
same,pest or weed control at 17933.6 g/ha,Velvetleaf [6],100%
same,pest or weed control at 17933.6 g/ha,Chickweed [7],100%
same,pest or weed control at 17933.6 g/ha,"Lambsquarters [8]; Chenopodium album, pre-emergence, 504 h, 16 lb/acre, about 3 weeks",100%
same,pest or weed control at 17933.6 g/ha,"Curled Dock [9]; pre-emergence, 504 h, 16 lb/acre, about 3 weeks",100%
same,pest or weed control at 17933.6 g/ha,"Wild Oats [10]; Avena fatua, pre-emergence, 504 h, 16 lb/acre, about 3 weeks",100%
same,pest or weed control at 17933.6 g/ha,"Johnsongrass [11]; Sorghum halepense, pre-emergence, 504 h, 16 lb/acre, about 3 weeks",100%
same,pest or weed control at 17933.6 g/ha,Yellow Rocket [12],100%
same,pest or weed control at 17933.6 g/ha,"Cheatgrass [13]; Bromus tectorum, pre-emergence, 504 h, 16 lb/acre, about 3 weeks",100%
same,pest or weed control at 17933.6 g/ha,"Barnyard Grass [14]; Echinochloa crus-galli, pre-emergence, 504 h, barnyard grass, 16 lb/acre, about 3 weeks",100%
same,pest or weed control at 17933.6 g/ha,"Pigweed [15]; Amaranthus retroflexus, pre-emergence, 504 h, 16 lb/acre, about 3 weeks",100%
same,pest or weed control at 17933.6 g/ha,"Foxtail [16]; Setaria, pre-emergence, 504 h, 16 lb/acre, about 3 weeks",100%
same,plant injury at 17933.6 g/ha,"Corn [17]; Zea mays, pre-emergence, 504 h, 16 lb/acre, about 3 weeks",90%
same,pest or weed control at 17933.6 g/ha,"Crabgrass [18]; Digitaria sanguinalis, pre-emergence, 504 h, 16 lb/acre, about 3 weeks",100%
